In patent US6930185B2, “Melanin-concentrating hormone antagonist” (Takeda Chemical Industries, Ltd., priority 2000, dated 2005):

Legend:
SLC-1 = SLC-1 (UniProt Q99705); assay: Determination of antagonist activity using GTPγS binding assay; type: biochemical, human/rat; details: inhibition of MCH-stimulated [35S]-Guanosine 5′-(γ-thio) triphosphate binding, SLC-1 expressing CHO cell membrane fractions
Experimental: Determination of Antagonist Activity Using GTPYS Binding Assay of Test Compound
Membrane fraction was prepared by the following method, using the human SLC-1 expressing CHO cell clone 57 obtained in Reference Example 1-10, and the rat SLC-1 expressing CHO cell clone 44 obtained in Reference Example 1-4.
The human and rat SLC-1 expressing CHO cells (1×10^8) were scraped in buffer saline phosphate (pH 7.4) to which 5 mM EDTA (ethylenediaminetetraacetic acid) had been added, and centrifuged. 10 ml of homogenized buffer (10 mM NaHCO3, 5 mM EDTA, pH 7.5) was added to the cell pellets, and they were homogenized using a Polytron homogenizer. […]
After this reaction mixture was allowed to react for 1 hour under stirring, it was filtered under vacuum using a glass filter (GF-C), then the filter was washed 3 times with 300 μl of washing solution (50 mM Tris-HCl buffer solution pH 7.5). […] of liquid scintillator was added to the glass filter, and residual radioactivity was determined using a liquid scintillation counter.
The IC50 value of the compound was calculated from the binding inhibition rate (%), based on the definition that the binding inhibition rate (%)=(radioactivity when compound and MCH were added−radioactivity when DMSO solution was added)/(radioactivity when MCH was added−radioactivity when DMSO solution was added)×100.

**Q.** With CN(C)Cc1ccc2cc(NC(=O)c3ccc(-c4ccc(Cl)cc4)cc3)ccc2c1 [Example 1, 4′-Chloro-N-[6-[(N,N-dimethylamino)methyl]-2-naphthyl][1,1′-biphenyl]-4-carboxamide] as the molecule, how does the IC50 (SLC-1) read?
**A.** 5 nM

**Q.** And the melting point?
**A.** 230 to 231 °C
